Experimental data as given in patent US20230085307A1, “PYRIDAZINONE COMPOUND AND HERBICIDE” (NISSAN CHEMICAL CORPORATION, priority 2019, published 2023).

Assays:
[1] = tested on: Japanese bulrush; experiment: Test Example 1: herbicidal activity, application before weed generation under submerged conditions (Table 16, symbol B); type: in vivo, Japanese bulrush (Schoenoplectus juncoides); details: 320 g/ha applied herbicide
Procedure, shortened: (§1)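 Alluvial soil was flooded to 4 cm depth, weed seeds were sown mixed and 2.5-leaf rice seedlings were transplanted. On sowing day, the compound's emulsion, diluted in water to a set dose, was applied to the water surface. Plants grew at 25–30 °C and were scored 0–5 after three weeks.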

[2] = tested on: oval-leafed pondweed; experiment: Test Example 1: herbicidal activity, application before weed generation under submerged conditions (Table 16, symbol C); type: in vivo, oval-leafed pondweed (Monochoria vaginalis); details: 320 g/ha applied herbicide
Procedure, shortened: as §1

[3] = tested on: late watergrass; experiment: Test Example 2: herbicidal activity, application during weed generation under submerged conditions (Table 17, symbol A); type: in vivo, late watergrass (Echinochloa oryzicola); details: AAH 320 g/ha; application during weed generation, submerged conditions
Procedure, shortened: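 Effect on each weed is rated three weeks post-treatment, using the same scoring criteria as the preceding test. Plants grow from mixed-sown seed in flooded alluvial soil (4 cm water) at 25° C. to 30° C., and are treated at one to two leaves with diluted emulsion dropped onto the water.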

[4] = tested on: barnyard grass; experiment: Test Example 3: herbicidal effect by foliage application, Wagner pot (Table 18, symbol H); type: in vivo, barnyard grass (Echinochloa crus-galli); details: for herbicidal effect on H: barnyard grass: amount of applied herbicide 320 g/ha
Procedure, shortened: (§2)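 Plants were sown in alluvial soil held under 0.1–0.5 cm standing water and grown 14 days in a greenhouse at 25–30 °C. An emulsifiable formulation, water-diluted to the set dose, was then sprayed onto the foliage, and effects were scored three weeks later using previously defined criteria.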

[5] = tested on: Chinese sprangletop; experiment: Test Example 3: herbicidal effect by foliage application, Wagner pot (Table 18, symbol D); type: in vivo, chinese sprangletop (Leptochloa chinensis); details: for herbicidal effect on D: Chinese sprangletop: amount of applied herbicide 320 g/ha
Procedure, shortened: as §2

[6] = tested on: barnyard grass; experiment: Test Example 4: herbicidal effect by soil treatment (Table 19, symbol H); type: in vivo, barnyard grass (Echinochloa crus-galli); details: amount of applied herbicide 320 g/ha
Procedure, shortened: (§3)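 Soil-surface application: an emulsion agent diluted with water to the predetermined dose is sprayed uniformly over seeds lying under roughly 1.5 cm of sterilized diluvial soil. Boxes stay in a greenhouse at 25° C. to 30° C. Three weeks later, each species is graded on previously defined criteria.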

[7] = tested on: windgrass; experiment: Test Example 4: herbicidal effect by soil treatment (Table 19, symbol L); type: in vivo, windgrass (Apera spica-venti); details: amount of applied herbicide 320 g/ha
Procedure, shortened: as §3

[8] = tested on: velvetleaf; experiment: Test Example 4: herbicidal effect by soil treatment (Table 19, symbol M); type: in vivo, velvetleaf (Abutilon theophrasti); details: amount of applied herbicide 320 g/ha
Procedure, shortened: as §3

[9] = tested on: lambsquarters; experiment: Test Example 4: herbicidal effect by soil treatment (Table 19, symbol O); type: in vivo, lambsquarters (Chenopodium album); details: amount of applied herbicide 320 g/ha
Procedure, shortened: as §3

[10] = tested on: persian speedwell; experiment: Test Example 4: herbicidal effect by soil treatment (Table 19, symbol R); type: in vivo, Persian speedwell (Veronica persica); details: amount of applied herbicide 320 g/ha
Procedure, shortened: as §3

[11] = tested on: barnyard grass; experiment: Test Example 5: herbicidal effect by foliage application, plastic box (Table 20, symbol H); type: in vivo, barnyard grass (Echinochloa crus-galli); details: foliage application; for H: barnyard grass, herbicidal effect (criteria 0-5): AAH 320 g/ha
Procedure, shortened: (§4)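 Sow seeds spot-wise in sterilized diluvial soil; cover with ~1.5 cm soil. Grow 14 days in greenhouse, 25° C. to 30° C. Spray foliage with emulsion diluted to predetermined amount. Rate effect after 3 weeks.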

[12] = tested on: blackgrass; experiment: Test Example 5: herbicidal effect by foliage application, plastic box (Table 20, symbol J); type: in vivo, blackgrass (Alopecurus myosuroides); details: foliage application; for J: blackgrass, herbicidal effect (criteria 0-5): AAH 320 g/ha
Procedure, shortened: as §4

[13] = tested on: Italian ryegrass; experiment: Test Example 5: herbicidal effect by foliage application, plastic box (Table 20, symbol K); type: in vivo, Italian ryegrass (Lolium multiflorum); details: foliage application; for K: Italian ryegrass, herbicidal effect (criteria 0-5): AAH 320 g/ha
Procedure, shortened: as §4

[14] = tested on: velvetleaf; experiment: Test Example 5: herbicidal effect by foliage application, plastic box (Table 20, symbol M); type: in vivo, velvetleaf (Abutilon theophrasti); details: foliage application; for M: velvetleaf, herbicidal effect (criteria 0-5): AAH 320 g/ha
Procedure, shortened: as §4

[15] = tested on: redroot pigweed; experiment: Test Example 5: herbicidal effect by foliage application, plastic box (Table 20, symbol N); type: in vivo, redroot pigweed (Amaranthus retroflexus); details: foliage application; for N: redroot pigweed, herbicidal effect (criteria 0-5): AAH 320 g/ha
Procedure, shortened: as §4

[16] = tested on: lambsquarters; experiment: Test Example 5: herbicidal effect by foliage application, plastic box (Table 20, symbol O); type: in vivo, lambsquarters (Chenopodium album); details: foliage application; for O: lambsquarters, herbicidal effect (criteria 0-5): AAH 320 g/ha
Procedure, shortened: as §4

[17] = evaluated three weeks after application
[18] = 320 g/ha, three weeks after application
[19] = 320 g/ha, evaluated three weeks after application

Row | SMILES | Herbicidal effect on B: Japanese bulrush (grade 0-5) [1] | Herbicidal effect on C: oval-leafed pondweed (grade 0-5) [2] | herbicidal effect rating, A: late watergrass [3] | herbicidal effect on H: barnyard grass [4] | herbicidal effect on D: Chinese sprangletop [5] | herbicidal effect on H: barnyard grass [6] | herbicidal effect on L: windgrass [7] | herbicidal effect on M: velvetleaf [8] | herbicidal effect on O: lambsquarters [9] | herbicidal effect on R: persian speedwell [10] | H: barnyard grass, herbicidal effect (criteria 0-5) [11, 17] | J: blackgrass, herbicidal effect (criteria 0-5) [12, 17] | K: Italian ryegrass, herbicidal effect (criteria 0-5) [13, 17] | M: velvetleaf, herbicidal effect (criteria 0-5) [14, 17] | N: redroot pigweed, herbicidal effect (criteria 0-5) [15, 17] | O: lambsquarters, herbicidal effect (criteria 0-5) [16, 17] | other results
1 | Cc1nn(C)c(=O)c(-c2c(-c3ccc(OC(F)F)cc3)sc3ccc(F)cc23)c1OC(=O)COc1ccccc1 [2-284] | 3 (Herbicidal rate of 40% or more and less than 70%) | 3 (Herbicidal rate of 40% or more and less than 70%) | 3 (Herbicidal rate of 40% or more and less than 70%) | 5 (Herbicidal rate of 90% or more (almost completely withered)) | 3 (Herbicidal rate of 40% or more and less than 70%) | 5 (Herbicidal rate of 90% or more (almost completely withered)) | 4 (Herbicidal rate of 70% or more and less than 90%) | 5 (Herbicidal rate of 90% or more (almost completely withered)) | 5 (Herbicidal rate of 90% or more (almost completely withered)) | 5 (Herbicidal rate of 90% or more (almost completely withered)) | 5 (Herbicidal rate of 90% or more (almost completely withered)) | 5 (Herbicidal rate of 90% or more (almost completely withered)) | 5 (Herbicidal rate of 90% or more (almost completely withered)) | 5 (Herbicidal rate of 90% or more (almost completely withered)) | 5 (Herbicidal rate of 90% or more (almost completely withered)) | 5 (Herbicidal rate of 90% or more (almost completely withered)) | 
2 | CCCC(=O)Oc1c(C)nn(C)c(=O)c1-c1c(-c2ccc(SC)cc2)sc2ccccc12 [1-037] | 4 (Herbicidal rate of 70% or more and less than 90%) | 3 (Herbicidal rate of 40% or more and less than 70%) | 0 (Herbicidal rate of 5% or less (almost no effect)) |  |  |  |  |  |  |  |  |  |  |  |  |  | herbicidal effect on H (barnyard grass), rating 0-5 ([4]; 320 g/ha): 5 (Herbicidal rate of 90% or more (almost completely withered)); herbicidal effect on D (Chinese sprangletop), rating 0-5 ([5]; 320 g/ha): 3 (Herbicidal rate of 40% or more and less than 70%); herbicidal effect rating, H: barnyard grass [6]: 2 (Herbicidal rate of 20% or more and less than 40%); herbicidal effect rating, L: windgrass [7]: 0 (Herbicidal rate of 5% or less (almost no effect)); herbicidal effect rating, M: velvetleaf [8]: 3 (Herbicidal rate of 40% or more and less than 70%); herbicidal effect rating, O: lambsquarters [9]: 3 (Herbicidal rate of 40% or more and less than 70%); herbicidal effect rating, R: persian speedwell [10]: 3 (Herbicidal rate of 40% or more and less than 70%); herbicidal effect grade, H: barnyard grass [11, 18]: 4 (Herbicidal rate of 70% or more and less than 90%); herbicidal effect grade, J: blackgrass [12, 18]: 4 (Herbicidal rate of 70% or more and less than 90%); herbicidal effect grade, K: Italian ryegrass [13, 18]: 4 (Herbicidal rate of 70% or more and less than 90%); herbicidal effect grade, M: velvetleaf [14, 18]: 5 (Herbicidal rate of 90% or more (almost completely withered)); herbicidal effect grade, N: redroot pigweed [15, 18]: 5 (Herbicidal rate of 90% or more (almost completely withered)); herbicidal effect grade, O: lambsquarters [16, 18]: 5 (Herbicidal rate of 90% or more (almost completely withered))
3 | Cc1ccccc1C(=O)Oc1c(C)nn(C)c(=O)c1-c1c(-c2ccc(OC(F)F)cc2)sc2ccc(F)cc12 [2-285] | 3 (Herbicidal rate of 40% or more and less than 70%) | 0 (Herbicidal rate of 5% or less (almost no effect)) | 3 (Herbicidal rate of 40% or more and less than 70%) | 5 (Herbicidal rate of 90% or more (almost completely withered)) | 3 (Herbicidal rate of 40% or more and less than 70%) | 0 (Herbicidal rate of 5% or less (almost no effect)) | 0 (Herbicidal rate of 5% or less (almost no effect)) | 0 (Herbicidal rate of 5% or less (almost no effect)) | 0 (Herbicidal rate of 5% or less (almost no effect)) | 3 (Herbicidal rate of 40% or more and less than 70%) | 4 (Herbicidal rate of 70% or more and less than 90%) | 4 (Herbicidal rate of 70% or more and less than 90%) | 4 (Herbicidal rate of 70% or more and less than 90%) | 5 (Herbicidal rate of 90% or more (almost completely withered)) | 5 (Herbicidal rate of 90% or more (almost completely withered)) | 5 (Herbicidal rate of 90% or more (almost completely withered)) | 
4 | Cc1nn(C)c(=O)c(-c2c(-c3ccc(C#N)cc3)sc3ccc(Cl)cc23)c1O [2-112] | 2 (Herbicidal rate of 20% or more and less than 40%) | 0 (Herbicidal rate of 5% or less (almost no effect)) | 3 (Herbicidal rate of 40% or more and less than 70%) | 5 (Herbicidal rate of 90% or more (almost completely withered)) | 4 (Herbicidal rate of 70% or more and less than 90%) |  |  |  |  |  |  |  |  |  |  |  | H: barnyard grass, herbicidal effect rating [6]: 0 (Herbicidal rate of 5% or less (almost no effect)); L: windgrass, herbicidal effect rating [7]: 5 (Herbicidal rate of 90% or more (almost completely withered)); M: velvetleaf, herbicidal effect rating [8]: 4 (Herbicidal rate of 70% or more and less than 90%); O: lambsquarters, herbicidal effect rating [9]: 5 (Herbicidal rate of 90% or more (almost completely withered)); R: persian speedwell, herbicidal effect rating [10]: 5 (Herbicidal rate of 90% or more (almost completely withered)); herbicidal effect on H: barnyard grass [11, 19]: 4 (Herbicidal rate of 70% or more and less than 90%); herbicidal effect on J: blackgrass [12, 19]: 5 (Herbicidal rate of 90% or more (almost completely withered)); herbicidal effect on K: Italian ryegrass [13, 19]: 5 (Herbicidal rate of 90% or more (almost completely withered)); herbicidal effect on M: velvetleaf [14, 19]: 4 (Herbicidal rate of 70% or more and less than 90%); herbicidal effect on N: redroot pigweed [15, 19]: 5 (Herbicidal rate of 90% or more (almost completely withered)); herbicidal effect on O: lambsquarters [16, 19]: 4 (Herbicidal rate of 70% or more and less than 90%)
5 | Cc1nn(C)c(=O)c(-c2c(-c3ccc(SC(C)C)cc3)sc3ccc(F)cc23)c1O [2-252] | 2 (Herbicidal rate of 20% or more and less than 40%) | 1 (Herbicidal rate of 5% or more and less than 20%) | 4 (Herbicidal rate of 70% or more and less than 90%) | 5 (Herbicidal rate of 90% or more (almost completely withered)) | 5 (Herbicidal rate of 90% or more (almost completely withered)) | 3 (Herbicidal rate of 40% or more and less than 70%) | 0 (Herbicidal rate of 5% or less (almost no effect)) | 2 (Herbicidal rate of 20% or more and less than 40%) | 4 (Herbicidal rate of 70% or more and less than 90%) | 5 (Herbicidal rate of 90% or more (almost completely withered)) |  |  |  |  |  |  | herbicidal effect on H: barnyard grass (criteria 0-5) [11, 19]: 5 (Herbicidal rate of 90% or more (almost completely withered)); herbicidal effect on J: blackgrass (criteria 0-5) [12, 19]: 5 (Herbicidal rate of 90% or more (almost completely withered)); herbicidal effect on K: Italian ryegrass (criteria 0-5) [13, 19]: 5 (Herbicidal rate of 90% or more (almost completely withered)); herbicidal effect on M: velvetleaf (criteria 0-5) [14, 19]: 5 (Herbicidal rate of 90% or more (almost completely withered)); herbicidal effect on N: redroot pigweed (criteria 0-5) [15, 19]: 5 (Herbicidal rate of 90% or more (almost completely withered)); herbicidal effect on O: lambsquarters (criteria 0-5) [16, 19]: 5 (Herbicidal rate of 90% or more (almost completely withered))
